The test system of data set [1] is photosynthetic electron transport (PET) in spinach chloroplasts. More on the design: method as in earlier work. The note with it: standard, read-out: PET reduction IC50; cited from earlier work.
Data set [2] is described as follows: Lipophilicity determination by RP-HPLC (capacity factor k / log k). Type of data set: physicochemical. The note with it: C18 column, isocratic MeOH 55.0% / H2O 45.0%. An excerpt: A Waters Alliance 2695 XE HPLC separation module and Waters Photodiode Array Detector 2996 (Waters Corp., Milford, MA, USA) were used. A Symmetry® C18 5 μm, 4.6 × 250 mm, Part No. WAT054275, (Waters Corp., Milford, MA, USA) chromatographic column was used. The HPLC separation process was monitored by Millennium32® Chromatography Manager Software, Waters 2004 (Waters Corp., Milford, MA, USA). A mixture of MeOH p.a. (55.0%) and H2O-HPLC– Mili-Q Grade (45.0%) was used as a mobile phase. The total flow of the column was 0.9 mL/min, injection 30 μL, column temperature 30 °C and sample temperature 10 °C. The detection wavelength 210 nm was chosen. The KI methanolic solution was used for the dead time (tD) determination. Retention times (tR) were measured in minutes.
The capacity factors k were calculated using the Millennium32® Chromatography Manager Software according to formula k = (tR - tD)/tD, where tR is the retention time of the solute, whereas tD denotes the dead time obtained via an unretained analyte. Log k, calculated from the capacity factor k, is used as the lipophilicity index converted to log P scale.

The subject of data set [3] is photosynthetic electron transport (PET) in spinach chloroplasts. The experiment in a line: Inhibition of photosynthetic electron transport (PET) in spinach chloroplasts, DCPIP photoreduction. Type of data set: biochemical, Spinacia oleracea L. The note with it: DCPIP as electron acceptor, phosphate buffer pH 7.2, read-out: PET reduction IC50. The method, then:
Chloroplasts were prepared from spinach (Spinacia oleracea L.) according to Masarovicova and Kralova. The inhibition of photosynthetic electron transport (PET) in spinach chloroplasts was determined spectrophotometrically (Genesys 6, Thermo Scientific, USA) using an artificial electron acceptor 2,6-dichlorophenol-indophenol (DCIPP) according to Kralova et al. and the rate of photosynthetic electron transport was monitored as a photoreduction of DCPIP. The measurements were carried out in phosphate buffer (0.02 mol/L, pH 7.2) containing sucrose (0.4 mol/L), MgCl2 (0.005 mol/L) and NaCl (0.015 mol/L). The chlorophyll content was 30 mg/L in these experiments and the samples were irradiated (~100 W/m^2) from 10 cm distance with a halogen lamp (250 W) using a 4 cm water filter to prevent warming of the samples (suspension temperature 22 °C). The studied compounds were dissolved in DMSO due to their limited water solubility. […] The inhibitory efficiency of the studied compounds was expressed by IC50 values, i.e., by molar concentration of the compounds causing 50% decrease in the oxygen evolution rate relative to the untreated control.

Data set [4] deals with Candida albicans ATCC 44859. The experiment in a line: In vitro antifungal broth microdilution test. Particulars: Candida albicans, ATCC44859, 35 °C, RPMI 1640 pH 7.0, CLSI M27-A2 (IC80 value). Type of data set: cell-based. A general note: In broth dilution the organism is exposed to a series of concentrations in liquid medium.
A further data set concerns Candida tropicalis 156. Nature of the data set: In vitro antifungal broth microdilution test. Type of data set: cell-based. Particulars: Candida tropicalis, 156, 35 °C, RPMI 1640 pH 7.0, CLSI M27-A2 (IC80 value).
The next data set concerns Candida krusei ATCC 6258. Nature of the data set: In vitro antifungal broth microdilution test. Type of data set: cell-based. Particulars: Pichia kudriavzevii, ATCC6258, 35 °C, RPMI 1640 pH 7.0, CLSI M27-A2 (IC80 value).
The test system of a further data set is Candida glabrata 20/I. Nature of the data set: In vitro antifungal broth microdilution test. Type of data set: cell-based. The note with it: Nakaseomyces glabratus, 20/I, 35 °C, RPMI 1640 pH 7.0, CLSI M27-A2 (IC80 value).
The test system of data set [5] is Trichosporon beigelii 1188. The experiment in a line: In vitro antifungal broth microdilution test. In kind it is cell-based. The note with it: Trichosporon beigelii, 1188, 35 °C, RPMI 1640 pH 7.0, CLSI M27-A2 (IC80 value), read-out: MIC TB. As for the experimental part:
Fluconazole (FLU) was used as the standard of a clinically used antimycotic drug. The procedure was performed with twofold dilution of the compounds in RPMI 1640 (Sevapharma a.s., Prague, Czech Republic) buffered to pH 7.0 with 0.165 mol of 3-morpholino-propane-1-sulfonic acid (MOPS, Sigma, Germany). The final concentrations of the compounds ranged from 500 to 0.975 μmol/L. Drug–free controls were included. The MIC determination was performed according to the CLSI (formerly NCCLS) reference protocol M27-A2 for yeasts (IC80 value) and M38-A for moulds (IC50 value). […] The values of MICs were determined after 24 and 48 h of static incubation at 35 °C. For T. mentagrophytes, the final MICs were determined after 72 and 120 h of incubation.

Data set [6] has as its system Aspergillus fumigatus 231. The experiment in a line: In vitro antifungal broth microdilution test. The note with it: Aspergillus fumigatus, 231, 35 °C, RPMI 1640 pH 7.0, CLSI M38-A (IC50 value). In kind it is cell-based.
The test system of the next data set is Absidia corymbifera 272. The experiment in a line: In vitro antifungal broth microdilution test. In kind it is cell-based. Particulars: Lichtheimia corymbifera, 272, 35 °C, RPMI 1640 pH 7.0, CLSI M38-A (IC50 value).
The subject of data set [7] is Trichophyton mentagrophytes 445. The experiment in a line: In vitro antifungal broth microdilution test. In kind it is cell-based.
In a further data set the test system is M. smegmatis MC2155. The experiment in a line: In vitro antimycobacterial evaluation (alamarBlue, 96 well plate). Particulars: Mycolicibacterium smegmatis, Middlebrook broth, 37 °C overnight, read-out: MIC/IC90 M. smegmatis. In kind it is cell-based.
The next data set deals with M. absessus CIT21/06. The data set is described as above. In kind it is cell-based. Particulars: Middlebrook broth, 37 °C overnight, read-out: MIC/IC90 M. absessus.
The subject of another data set is M. kansasii CIT11/06. The description is as above. Type of data set: cell-based. The note with it: Mycobacterium kansasii, CIT11/06, 120 h, Middlebrook broth, 37 °C 5 days, read-out: MIC/IC90 M. kansasii.
Data set [8] concerns Mycobacterium avium complex CIT19/06. Described as above. Type of data set: cell-based. The note with it: 120 h, Middlebrook broth, 37 °C 5 days, read-out: MIC/IC90 M. avium complex.
Where [9] appears, read: Trichophyton mentagrophytes, 445, 120 h, pH 7.
[10] abbreviates: Trichophyton mentagrophytes, 445, 72h, RPMI 1640 pH 7.0, CLSI M38-A (IC50 value).

SMILES strings stand for the structures. pIC50: −log10 of the molar value. ≈ marks a conversion by molar mass, not a printed value. Where “and” joins values, the source holds several entries; their conditions need not be identical. Equal entries are not always repeated. Where two headings read alike, the source gives them in different places. Some results are limits rather than exact numbers.

Regarding `CN(C)C(=O)Nc1ccc(Cl)c(Cl)c1` [DCMU, 3-(3,4-dichlorophenyl)-1,1-dimethylurea], the pIC50 in data set [1] is ~5.72 and 5.72.

As to `Oc1ccc(C=Cc2ccc3c(Cl)cc(Cl)c(O)c3n2)cc1` [Compound 10, 5,7-Dichloro-2-[2-(4-hydroxyphenyl)vinyl]quinolin-8-ol], in data set [2], the log k was found to be 1.5866. In addition, the pIC50 in data set [3] was 3.18. The MIC in data set [4] (24h) is 125 µM (≈ 41.5 µg/mL); in [4] (48h), > 125 µM; in the data set with Candida tropicalis 156 (24h) it was 125 µM (≈ 41.5 µg/mL); in the data set on Candida tropicalis 156 (48h) it was > 125 µM; in the data set on Candida krusei ATCC 6258 (24h), 125 µM (≈ 41.5 µg/mL); in the data set with Candida krusei ATCC 6258 (48h) it was > 125 µM. Also, the MIC with Candida glabrata 20/I (24h) is 125 µM (≈ 41.5 µg/mL); against Candida glabrata 20/I (48h), > 125 µM; in data set [5] (24h) it was 125 µM (≈ 41.5 µg/mL); in [5] (48h) it was > 125 µM; in [6] (24h), 125 µM (≈ 41.5 µg/mL); in [6] (48h), 125 µM (≈ 41.5 µg/mL). Further, the MIC was 31.2 µM (≈ 10.4 µg/mL) with Absidia corymbifera 272 (24h); 62.5 µM (≈ 20.8 µg/mL) against Absidia corymbifera 272 (48h); 62.5 µM (≈ 20.8 µg/mL) in data set [7] (setting [9]); 15.6 µM (≈ 5.19 µg/mL) in data set [7] (setting [10]); 150 µg/mL (≈ 452 µM) in the data set on M. smegmatis MC2155; > 300 µg/mL in the data set on M. absessus CIT21/06. Also, the MIC (with M. kansasii CIT11/06; in [8]) was > 300 µg/mL each time.

In turn, `Oc1c(Cl)cc(Cl)c2ccc(C=Cc3ccc(C=Cc4ccc5c(Cl)cc(Cl)c(O)c5n4)cc3)nc12` [Compound 14, 5,7-Dichloro-2-(2-{4-[2-(5,7-dichloro-8-hydroxyquinolin-2-yl)vinyl]phenyl}vinyl)quinolin-8-ol] had a log k in data set [2] of 2.5760. Moreover, in [3], the negative-log IC50 (pIC50) is 3.48. The MIC in data set [4] (24h) came out at 0.98 µM (≈ 0.543 µg/mL); in data set [4] (48h), 3.9 µM (≈ 2.16 µg/mL); against Candida tropicalis 156 (24h) it was 1.95 µM (≈ 1.08 µg/mL); in the data set on Candida tropicalis 156 (48h) it was 7.81 µM (≈ 4.33 µg/mL); with Candida krusei ATCC 6258 (24h), 0.98 µM (≈ 0.543 µg/mL); in the data set with Candida krusei ATCC 6258 (48h), 1.95 µM (≈ 1.08 µg/mL). In addition, the MIC with Candida glabrata 20/I (24h) came out at 0.49 µM (≈ 0.272 µg/mL); with Candida glabrata 20/I (48h) it was 1.95 µM (≈ 1.08 µg/mL); in data set [5] (24h), 3.9 µM (≈ 2.16 µg/mL); in data set [5] (48h) it was 15.6 µM (≈ 8.66 µg/mL); in data set [6] (24h), 3.9 µM (≈ 2.16 µg/mL); in [6] (48h), 15.6 µM (≈ 8.66 µg/mL). The MIC against Absidia corymbifera 272 (24h) came out at 15.6 µM (≈ 8.66 µg/mL); with Absidia corymbifera 272 (48h) it was 31.2 µM (≈ 17.3 µg/mL); in data set [7] (setting [9]), 7.81 µM (≈ 4.33 µg/mL); in data set [7] (setting [10]) it was 3.9 µM (≈ 2.16 µg/mL); with M. smegmatis MC2155, 40 µg/mL (≈ 72.2 µM); in the data set on M. absessus CIT21/06, 130 µg/mL (≈ 235 µM). For the same molecule, the MIC was 40 µg/mL (≈ 72.2 µM) in the data set with M. kansasii CIT11/06 and > 300 µg/mL in data set [8].

For orientation: pIC50 means the IC50 on a negative log10 scale, so that one unit is a factor of ten.
